Patent publication US11932645B2, “Substituted pyrazolo[1,5-a]pyrimidines and their use in the treatment of medical disorders” (Bial—R&D Investments, S.A., priority 2014, dated 2024)

Tests used:
[1] = Compound solubility in water; assay type: physicochemical
[2] = molecular target: T1, glucocerebrosidase (Gcase) (Homo sapiens, UniProt P04062); experiment: Glucocerebrosidase (Gcase) activation assay, 4-methylumbelliferyl-beta-D-glucopyranoside substrate, with saposin C; assay type: biochemical; settings: 10 nM GCase, 100 nM saposin C, pH 4.7
T1 sequence (P04062 40-536): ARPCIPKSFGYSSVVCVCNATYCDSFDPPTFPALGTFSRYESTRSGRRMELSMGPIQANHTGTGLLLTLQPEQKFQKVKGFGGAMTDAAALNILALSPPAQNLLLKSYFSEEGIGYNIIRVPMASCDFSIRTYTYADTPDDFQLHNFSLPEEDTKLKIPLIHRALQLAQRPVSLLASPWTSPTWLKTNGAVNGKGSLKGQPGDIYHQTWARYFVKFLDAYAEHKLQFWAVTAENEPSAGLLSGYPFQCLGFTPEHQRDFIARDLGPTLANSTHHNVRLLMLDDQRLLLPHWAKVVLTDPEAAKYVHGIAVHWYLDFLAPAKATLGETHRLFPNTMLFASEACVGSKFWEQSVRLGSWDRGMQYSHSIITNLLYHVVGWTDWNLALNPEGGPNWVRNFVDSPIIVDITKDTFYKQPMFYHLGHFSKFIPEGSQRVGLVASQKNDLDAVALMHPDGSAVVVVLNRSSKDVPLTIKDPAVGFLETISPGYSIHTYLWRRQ
Protocol: The ability of exemplary compounds to activate glucocerebrosidase (Gcase) was measured.
A 484 μL aliquot of a 1.0 mg/mL solution of phosphatidylserine (PS) (Sigma P7769) in chloroform was evaporated under a stream of nitrogen for 1 hour. The lipid film was dissolved over 4 minutes of vigorous vortexing in 40 mL of 176 mM K2HPO4/50 mM citric acid (pH 4.7) containing 7.5 μL of triton X-100, resulting in a mixed micellar preparation with a composition of 0.32 mM triton and 0.37 mol % PS. 4-Methylumbelliferyl-beta-D-glucopyranoside (ACROS-337025000) was dissolved in the micellar solution to a final concentration of 2 mM for use as the reaction substrate.
Test compounds were diluted to the desired concentrations with dimethylsulfoxide (DMSO) from 10 mM stocks, and 0.41 μL of the DMSO compound mixture was added to 100 μL of micellar solution containing 10 nM GCase and 100 nM saposin C (Enzo ALX-201-262-C050). Pre-incubation was allowed to occur for 30 minutes at room temperature, after which the reaction was initiated by combining 25 μL of substrate solution with 25 μL of compound/GCase/saposin mixture. The reaction proceeded for 15 minutes at room temperature and was stopped by adding 150 μL of 1M glycine, pH 12.5. The endpoint of the reaction was monitored by measuring fluorescence intensity (excitation: 365 nm; emission: 440 nm) on a SpectraMax i3 instrument (Molecular Devices). Test compounds were screened at 1.0 and 0.1 μM final concentration, and subsequent 8-point dose response curves were obtained using 3-fold dilutions from a maximum final concentration of 5 μM.
For experiments in which the test compound was used at a concentration of 1.0 μM, the symbol “+” indicates less than 30% Gcase activation; the symbol “++” indicates Gcase activation in the range of 30% up to 60%; and the symbol “+++” indicates Gcase activation greater than 60%. For experiments in which the test compound was used at a concentration of 0.1 μM, the symbol “*” indicates less than 10% Gcase activation; the symbol “**” indicates Gcase activation in the range of 10% up to 20%; and the symbol “***” indicates greater than 20% Gcase activation.

Row | SMILES | Compound Solubility in Water [1] | Percent Gcase Activation 0.1 μM Test Compound [2] | Percent Gcase Activation 1 μM Test Compound [2]
1 | Cc1cc(C)n2ncc(C(=O)Nc3ccc(-c4ccc[nH]4)cc3)c2n1 [III-57] | <1.5 µg/mL | ** (Gcase activation in the range of 10% up to 20%) | + (less than 30% Gcase activation)
2 | Cc1cc(C)n2ncc(C(=O)NC(C)(C)c3ccc(Cl)cc3)c2n1 [III-67] | – | ** (Gcase activation in the range of 10% up to 20%) | +++ (Gcase activation greater than 60%)
3 | Cc1cc(Cl)n2ncc(C(=O)NC(C)(C)c3ccc(Cl)cc3)c2n1 [III-68] | – | ** (Gcase activation in the range of 10% up to 20%) | +++ (Gcase activation greater than 60%)
4 | Cc1cc(Cl)nc2c(C(=O)NC(C)(C)c3ccc(Cl)cc3)cnn12 [III-69] | – | *** (greater than 20% Gcase activation) | +++ (Gcase activation greater than 60%)
5 | Cc1cc(C)n2ncc(C(=O)NC(C)(C)c3ccc(F)cc3F)c2n1 [III-70] | – | ** (Gcase activation in the range of 10% up to 20%) | +++ (Gcase activation greater than 60%)
6 | CO[C@H]1CC[C@H](C(C)(C)NC(=O)c2cnn3c(C)cc(C)nc23)CC1 [III-71] | – | * (less than 10% Gcase activation) | ++ (Gcase activation in the range of 30% up to 60%)
7 | CO[C@H]1CC[C@@H](C(C)(C)NC(=O)c2cnn3c(C)cc(C)nc23)CC1 [III-72] | – | * (less than 10% Gcase activation) | +++ (Gcase activation greater than 60%)
8 | Cc1cc(C)n2ncc(C(=O)Nc3ccc4c(c3)C(C3=NCCN3)CCC4)c2n1 (stereo not drawn) [III-73] | – | * (less than 10% Gcase activation) | + (less than 30% Gcase activation)
9 | C#Cc1ccc(NCc2cnn3c(C)cc(C)cc23)cc1 [III-74] | – | * (less than 10% Gcase activation) | + (less than 30% Gcase activation)
10 | Cc1cc(C)n2ncc(C(=O)Nc3ccc(Cl)c(C(C)Oc4cccnc4)c3)c2n1 (stereo not drawn) [III-75] | – | * (less than 10% Gcase activation) | +++ (Gcase activation greater than 60%)
11 | Cc1cc(C)n2ncc(C(=O)Nc3ccc(-c4ccc[nH]4)cc3)c2n1 [III-76] | 0.01 µg/mL | ** (Gcase activation in the range of 10% up to 20%) | ++ (Gcase activation in the range of 30% up to 60%)
12 | C#Cc1ccc(NC(=O)c2cnn3c(C)cc(NC)nc23)cc1 [III-77] | – | *** (greater than 20% Gcase activation) | +++ (Gcase activation greater than 60%)
13 | C#Cc1ccc(NC(=O)c2cnn3c(NC)cc(C)nc23)cc1 [III-78] | – | ** (Gcase activation in the range of 10% up to 20%) | + (less than 30% Gcase activation)
14 | Cc1cc(C)n2ncc(C(=O)NC3CCc4ccccc43)c2n1 (stereo not drawn) [III-79] | – | ** (Gcase activation in the range of 10% up to 20%) | –
15 | C#Cc1ccc(NC(=O)c2cnn3c(C)cc(C)nc23)cc1 [IV-1] | – | ** (Gcase activation in the range of 10% up to 20%) | ++ (Gcase activation in the range of 30% up to 60%)
16 | Cc1cc(C)n2ncc(C(=O)Nc3ccc(C#CCN(C)C)cc3)c2n1 [IV-2] | – | * (less than 10% Gcase activation) | + (less than 30% Gcase activation)
17 | Cc1cc(C)n2ncc(C(=O)Nc3ccc(N4CCCCC4)cc3)c2n1 [IV-3] | – | * (less than 10% Gcase activation) | + (less than 30% Gcase activation)
18 | Cc1cc(C)n2ncc(C(=O)Nc3ccc4c(c3)OCO4)c2n1 [IV-4] | – | * (less than 10% Gcase activation) | ++ (Gcase activation in the range of 30% up to 60%)
19 | Cc1cc(C)n2ncc(C(=O)Nc3ccc4c(c3)CCC4)c2n1 [IV-5] | – | ** (Gcase activation in the range of 10% up to 20%) | +++ (Gcase activation greater than 60%)
